Source: patent US8476298B2 (Exelixis, Inc., priority 2003, dated 2013)
Where two headings read alike, the source gives them in different places.

What was measured:
[1] = molecular target: T1, c-Met (baculovirus expressed human c-Met kinase domain P948-S1343) (Homo sapiens, UniProt P08581); experiment: c-Met Luciferase-Coupled Chemiluminescent Kinase assay (LCCA); type: biochemical;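 note: kinase activity read as percent ATP left after reaction, by luciferase-luciferin chemiluminescence, with 1 µM ATP and 1 µM poly-EY substrate, 2 h at ambient temperature, 10-point dose-response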
T1 construct: human c-Met kinase domain P948-S1343; host or cells: baculovirus expression

[2] = molecular target: T2, Flt-4 (baculovirus expressed human Flt-4 kinase domain D725-R1298) (Homo sapiens, UniProt P35916); experiment: flt-4 Alphascreen Tyrosine Kinase assay; type: biochemical; details: read-out: flt4 IC50;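 note: AlphaScreen chemiluminescence read-out of biotinylated poly(Glu,Tyr) 4:1 phosphorylation via streptavidin donor and PY100 anti-phosphotyrosine acceptor beads, ATP near KM, 1 hr kinase reaction, 10-point dose-response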
T2 construct: human Flt-4 kinase domain D725-R1298; host or cells: baculovirus expression

[3] = molecular target: T3, Flt-3 (baculovirus expressed human Flt-3 kinase domain R571-S993) (Homo sapiens, UniProt P36888); experiment: biochemical; details: read-out: flt3 IC50;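 note: Luciferase-coupled chemiluminescent kinase assay, activity read as percent ATP left after a 3 h reaction at room temperature, ATP near KM, 10-point dose-response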
T3 construct: human Flt-3 kinase domain R571-S993; host or cells: baculovirus expression
T3 sequence (P36888 571-993): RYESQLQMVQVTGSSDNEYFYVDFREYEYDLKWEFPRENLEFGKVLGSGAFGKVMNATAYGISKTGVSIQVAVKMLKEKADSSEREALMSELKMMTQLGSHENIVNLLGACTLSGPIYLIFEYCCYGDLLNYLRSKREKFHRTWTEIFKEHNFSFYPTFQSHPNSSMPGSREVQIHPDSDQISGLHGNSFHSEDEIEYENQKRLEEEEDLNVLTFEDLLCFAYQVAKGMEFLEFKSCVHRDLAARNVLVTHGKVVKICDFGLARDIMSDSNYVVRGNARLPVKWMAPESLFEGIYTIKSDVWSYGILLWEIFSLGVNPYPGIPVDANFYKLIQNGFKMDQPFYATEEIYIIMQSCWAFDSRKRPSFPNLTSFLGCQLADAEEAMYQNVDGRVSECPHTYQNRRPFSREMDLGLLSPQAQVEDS

[4] = molecular target: T4, KDR (baculovirus expressed human KDR kinase domain D807-V1356) (Homo sapiens, UniProt P35968); experiment: biochemical;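 note: Luciferase-coupled chemiluminescent kinase assay, activity read as percent ATP left after 4 h reaction at ambient temperature, ATP near KM, 10-point dose-response in 384-well plates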
T4 construct: human KDR kinase domain D807-V1356; host or cells: baculovirus expression

c-Kit kinase = c-Kit kinase (Homo sapiens, UniProt P10721); experiment: c-Kit AlphaScreen kinase assay; type: biochemical;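 note: c-Kit kinase phosphorylating biotinylated poly(Glu,Tyr), ATP near its KM, 1 h reaction at ambient temperature, AlphaScreen chemiluminescence with streptavidin donor and anti-phosphotyrosine acceptor beads, 10-point inhibitor titration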
[5] = Table 4, inhibition as IC50 class

T4 sequence (P35968 807-1356): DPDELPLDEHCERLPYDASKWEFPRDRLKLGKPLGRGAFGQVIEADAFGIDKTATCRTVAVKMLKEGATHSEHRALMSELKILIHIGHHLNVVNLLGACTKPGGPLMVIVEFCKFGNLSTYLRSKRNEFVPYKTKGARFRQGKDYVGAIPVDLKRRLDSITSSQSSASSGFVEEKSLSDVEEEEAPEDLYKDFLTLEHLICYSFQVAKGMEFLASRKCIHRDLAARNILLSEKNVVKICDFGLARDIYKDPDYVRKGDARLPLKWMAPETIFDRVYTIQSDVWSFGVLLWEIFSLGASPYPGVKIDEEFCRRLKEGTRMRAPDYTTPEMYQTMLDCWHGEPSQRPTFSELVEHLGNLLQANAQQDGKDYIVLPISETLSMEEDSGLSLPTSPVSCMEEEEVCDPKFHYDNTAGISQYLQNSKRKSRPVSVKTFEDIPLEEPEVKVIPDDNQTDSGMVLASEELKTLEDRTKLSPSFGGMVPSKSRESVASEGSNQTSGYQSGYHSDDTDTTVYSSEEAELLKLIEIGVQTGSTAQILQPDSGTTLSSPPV
T1 sequence (P08581 1011-1343 limits assumed): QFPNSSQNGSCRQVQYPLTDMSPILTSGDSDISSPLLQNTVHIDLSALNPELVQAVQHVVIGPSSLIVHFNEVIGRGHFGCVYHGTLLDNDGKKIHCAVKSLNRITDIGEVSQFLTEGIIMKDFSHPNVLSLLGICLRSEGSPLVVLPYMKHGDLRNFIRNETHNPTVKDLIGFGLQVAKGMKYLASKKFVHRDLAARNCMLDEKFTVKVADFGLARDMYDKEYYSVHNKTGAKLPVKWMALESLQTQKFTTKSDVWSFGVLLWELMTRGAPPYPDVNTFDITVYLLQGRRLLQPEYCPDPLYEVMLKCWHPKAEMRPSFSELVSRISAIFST
T2 sequence (P35916 725-1298 isoform P35916-1): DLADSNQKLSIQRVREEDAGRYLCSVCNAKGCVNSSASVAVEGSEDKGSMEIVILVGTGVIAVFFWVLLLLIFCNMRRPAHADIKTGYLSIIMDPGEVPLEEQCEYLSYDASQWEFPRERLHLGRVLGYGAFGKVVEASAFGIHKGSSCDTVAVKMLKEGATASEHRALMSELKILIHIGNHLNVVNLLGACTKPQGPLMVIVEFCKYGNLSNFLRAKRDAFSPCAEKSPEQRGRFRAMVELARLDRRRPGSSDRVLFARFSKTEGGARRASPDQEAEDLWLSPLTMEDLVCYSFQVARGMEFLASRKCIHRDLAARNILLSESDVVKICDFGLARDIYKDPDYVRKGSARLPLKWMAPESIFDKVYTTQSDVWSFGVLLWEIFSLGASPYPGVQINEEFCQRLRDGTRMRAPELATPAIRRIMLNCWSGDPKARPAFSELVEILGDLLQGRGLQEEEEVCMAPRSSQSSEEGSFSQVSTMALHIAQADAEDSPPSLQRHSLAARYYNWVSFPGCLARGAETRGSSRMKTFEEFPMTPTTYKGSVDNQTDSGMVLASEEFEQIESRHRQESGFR
c-Kit kinase, sequence (P10721 26-976): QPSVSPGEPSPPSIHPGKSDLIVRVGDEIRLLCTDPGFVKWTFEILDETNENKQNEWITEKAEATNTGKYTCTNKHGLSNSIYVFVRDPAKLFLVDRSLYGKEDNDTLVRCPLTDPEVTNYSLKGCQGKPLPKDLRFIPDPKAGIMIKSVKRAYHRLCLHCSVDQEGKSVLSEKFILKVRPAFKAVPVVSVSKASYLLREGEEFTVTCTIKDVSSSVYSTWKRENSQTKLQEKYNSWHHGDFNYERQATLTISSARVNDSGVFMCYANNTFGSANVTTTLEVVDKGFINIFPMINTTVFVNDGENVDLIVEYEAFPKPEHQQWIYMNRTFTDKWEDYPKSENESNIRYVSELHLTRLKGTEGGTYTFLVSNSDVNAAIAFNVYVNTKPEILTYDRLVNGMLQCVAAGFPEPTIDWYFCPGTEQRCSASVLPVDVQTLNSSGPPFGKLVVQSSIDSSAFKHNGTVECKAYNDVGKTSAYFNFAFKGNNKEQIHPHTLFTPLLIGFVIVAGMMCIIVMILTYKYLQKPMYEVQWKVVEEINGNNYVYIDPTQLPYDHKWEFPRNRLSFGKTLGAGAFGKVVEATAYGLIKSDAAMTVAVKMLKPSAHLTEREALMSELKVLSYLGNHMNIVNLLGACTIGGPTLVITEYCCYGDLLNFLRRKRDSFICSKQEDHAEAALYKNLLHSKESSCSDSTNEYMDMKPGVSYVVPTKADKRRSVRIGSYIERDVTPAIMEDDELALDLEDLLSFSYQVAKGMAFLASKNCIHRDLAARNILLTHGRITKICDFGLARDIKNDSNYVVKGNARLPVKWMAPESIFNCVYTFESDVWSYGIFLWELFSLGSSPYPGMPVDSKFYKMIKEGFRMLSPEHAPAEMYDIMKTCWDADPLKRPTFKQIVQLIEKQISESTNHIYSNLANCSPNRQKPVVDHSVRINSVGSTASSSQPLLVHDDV

IC50 [1, 5] [nM] | IC50 [2, 5] [nM] | IC50 [3, 5] [nM] | IC50 [4, 5] [nM] | IC50 (c-Kit kinase; [5]) [nM] | IC50 [1] [nM] | IC50 [2] [nM] | IC50 [3] [nM] | IC50 [4] [nM] | IC50 (c-Kit kinase) [nM] | Structure (SMILES)
< 50 | 50 to 500 | 500 to 5000 | 50 to 500 | 500 to 5000 |  |  |  |  |  | COc1cc2c(Oc3ccc(NC(=O)C(=O)Nc4ccccc4)cc3F)ccnc2cc1OCC1CCN(C)CC1 [Example 259, N-{3-fluoro-4-[(6-(methyloxy)-7-{[(1-methylpiperidin-4-yl)methyl]oxy}quinolin-4-yl)oxy]phenyl}-N′-phenylethanediamide]
< 50 | 500 to 5000 | 500 to 5000 | 500 to 5000 | 50 to 500 |  |  |  |  |  | COc1cc2c(Oc3ccc(NC(=O)C(=O)Nc4cccc(F)c4)cc3F)ccnc2cc1OCC1CCNCC1 [Example 260, N-[3-fluoro-4-({6-(methyloxy)-7-[(piperidin-4-ylmethyl)oxy]quinolin-4-yl}oxy)phenyl]-N′-(3-fluorophenyl)ethanediamide]
< 50 | 50 to 500 | 50 to 500 | 500 to 5000 | 500 to 5000 |  |  |  |  |  | COc1cc2c(Oc3ccc(NC(=O)C(=O)Nc4ccc(F)c(Cl)c4)cc3F)ccnc2cc1OCC1CCNCC1 [Example 261, N-(3-chloro-4-fluorophenyl)-N′-[3-fluoro-4-({6-(methyloxy)-7-[(piperidin-4-ylmethyl)oxy]quinolin-4-yl}oxy)phenyl]ethanediamide]
< 50 | 50 to 500 | 50 to 500 | 500 to 5000 | 500 to 5000 |  |  |  |  |  | COc1ccc(NC(=O)C(=O)Nc2ccc(Oc3ccnc4cc(OCC5CCNCC5)c(OC)cc34)c(F)c2)cc1OC [Example 262, N-[3,4-bis(methyloxy)phenyl]-N′-[3-fluoro-4-({6-(methyloxy)-7-[(piperidin-4-ylmethyl)oxy]quinolin-4-yl}oxy)phenyl]ethanediamide]
< 50 | 50 to 500 | 50 to 500 | 50 to 500 | < 50 |  |  |  |  |  | COc1cc2c(Oc3ccc(NC(=O)C(=O)NCCC(C)C)cc3F)ccnc2cc1OCC1CCNCC1 [Example 263, N-[3-fluoro-4-({6-(methyloxy)-7-[(piperidin-4-ylmethyl)oxy]quinolin-4-yl}oxy)phenyl]-N′-(3-methylbutyl)ethanediamide]
< 50 | 50 to 500 | < 50 | < 50 | < 50 |  |  |  |  |  | COc1cc2c(Oc3ccc(NC(=O)C(=O)NCCC(C)(C)C)cc3F)ccnc2cc1OCC1CCNCC1 [Example 264, N-(3,3-dimethylbutyl)-N′-[3-fluoro-4-({6-(methyloxy)-7-[(piperidin-4-ylmethyl)oxy]quinolin-4-yl}oxy)phenyl]ethanediamide]
< 50 | 50 to 500 | < 50 | 50 to 500 | 50 to 500 |  |  |  |  |  | COc1cc2c(Oc3ncc(NC(=O)CC(=O)Nc4ccc(F)cc4)cc3Cl)ccnc2cc1OCCCN1CCCCC1 [Example 265, N-[5-chloro-6-({6-(methyloxy)-7-[(3-piperidin-1-ylpropyl)oxy]quinolin-4-yl}oxy)pyridin-3-yl]-N′-(4-fluorophenyl)propanediamide]
< 50 | 50 to 500 | < 50 | 50 to 500 | 50 to 500 |  |  |  |  |  | COc1cc2c(Oc3ncc(NC(=O)CC(=O)Nc4ccc(F)cc4)cc3Cl)ccnc2cc1OCCCN1CCOCC1 [Example 266, N-[5-chloro-6-({6-(methyloxy)-7-[(3-morpholin-4-ylpropyl)oxy]quinolin-4-yl}oxy)pyridin-3-yl]-N′-(4-fluorophenyl)propanediamide]
< 50 | 50 to 500 | < 50 | 50 to 500 | 50 to 500 |  |  |  |  |  | CCN(CC)CCCOc1cc2nccc(Oc3ncc(NC(=O)CC(=O)Nc4ccc(F)cc4)cc3Cl)c2cc1OC [Example 267, N-(5-chloro-6-{[7-{[3-(diethylamino)propyl]oxy}-6-(methyloxy)quinolin-4-yl]oxy}pyridin-3-yl)-N′-(4-fluorophenyl)propanediamide]
< 50 | 50 to 500 | 50 to 500 | 50 to 500 | 50 to 500 |  |  |  |  |  | CCCCc1ccc(CNC(=O)C(=O)Nc2ccc(Oc3ccnc4cc(OCC5CCNCC5)c(OC)cc34)c(F)c2)cc1 [Example 270, N-[(4-butylphenyl)methyl]-N′-[3-fluoro-4-({6-(methyloxy)-7-[(piperidin-4-ylmethyl)oxy]quinolin-4-yl}oxy)phenyl]ethanediamide]
< 50 | 50 to 500 | < 50 | 50 to 500 | 50 to 500 |  |  |  |  |  | COc1cc2c(Oc3ccc(NC(=O)C(=O)NCCc4ccc(C)cc4)cc3F)ccnc2cc1OCC1CCNCC1 [Example 271, N-[3-fluoro-4-({6-(methyloxy)-7-[(piperidin-4-ylmethyl)oxy]quinolin-4-yl}oxy)phenyl]-N′-[2-(4-methylphenyl)ethyl]ethanediamide]
< 50 | 50 to 500 | 50 to 500 | 50 to 500 | 50 to 500 |  |  |  |  |  | COc1cc2c(Oc3ccc(NC(=O)C(=O)NCc4ccccn4)cc3F)ccnc2cc1OCC1CCNCC1 [Example 274, N-[3-fluoro-4-({6-(methyloxy)-7-[(piperidin-4-ylmethyl)oxy]quinolin-4-yl}oxy)phenyl]-N′-(pyridin-2-ylmethyl)ethanediamide]
< 50 | < 50 | < 50 | < 50 | < 50 |  |  |  |  |  | COc1cc2c(Oc3ccc(NC(=O)C(=O)NCCc4ccccc4)cc3F)ncnc2cc1OCC1CCNCC1 [Example 275, N-[3-fluoro-4-({6-(methyloxy)-7-[(piperidin-4-ylmethyl)oxy]quinazolin-4-yl}oxy)phenyl]-N′-(2-phenylethyl)ethanediamide]
< 50 | < 50 | < 50 | < 50 | < 50 |  |  |  |  |  | COc1cc2c(Oc3ccc(NC(=O)C(=O)NCCc4ccccc4)cc3F)ncnc2cc1OCC1CCN(C)CC1 [Example 276, N-{3-fluoro-4-[(6-(methyloxy)-7-{[(1-methylpiperidin-4-yl)methyl]oxy}quinazolin-4-yl)oxy]phenyl}-N′-(2-phenylethyl)ethanediamide]
< 50 | < 50 | < 50 | < 50 | < 50 |  |  |  |  |  | COc1cc2c(Oc3ccc(NC(=O)C(=O)NCc4cccc(C(F)(F)F)c4F)cc3F)ccnc2cc1OCC1CCNCC1 [Example 277, N-[3-fluoro-4-({6-(methyloxy)-7-[(piperidin-4-ylmethyl)oxy]quinolin-4-yl}oxy)phenyl]-N′-{[2-fluoro-3-(trifluoromethyl)phenyl]methyl}ethanediamide]
50 to 500 | 50 to 500 | < 50 | 50 to 500 | 50 to 500 |  |  |  |  |  | COc1ccc(CCN(C)C(=O)C(=O)Nc2ccc(Oc3ccnc4cc(OCC5CCNCC5)c(OC)cc34)c(F)c2)cc1OC [Example 279, N-{2-[3,4-bis(methyloxy)phenyl]ethyl}-N′-[3-fluoro-4-({6-(methyloxy)-7-[(piperidin-4-ylmethyl)oxy]quinolin-4-yl}oxy)phenyl]-N-methylethanediamide]
< 50 | < 50 | < 50 | < 50 | < 50 |  |  |  |  |  | COc1ccc(Br)cc1CCNC(=O)C(=O)Nc1ccc(Oc2ccnc3cc(OCC4CCNCC4)c(OC)cc23)c(F)c1 [Example 280, N-{2-[5-bromo-2-(methyloxy)phenyl]ethyl}-N′-[3-fluoro-4-({6-(methyloxy)-7-[(piperidin-4-ylmethyl)oxy]quinolin-4-yl}oxy)phenyl]ethanediamide]
< 50 | 50 to 500 | < 50 | < 50 | 50 to 500 |  |  |  |  |  | COc1cc2c(Oc3ccc(NC(=O)C(=O)NCc4cc(C(F)(F)F)ccc4F)cc3F)ccnc2cc1OCC1CCNCC1 [Example 281, N-[3-fluoro-4-({6-(methyloxy)-7-[(piperidin-4-ylmethyl)oxy]quinolin-4-yl}oxy)phenyl]-N′-{[2-fluoro-5-(trifluoromethyl)phenyl]methyl}ethanediamide]
 |  |  |  |  | < 50 | < 50 | < 50 | < 50 | < 50 | COc1cc2c(Oc3ncc(NC(=O)C4(C(=O)Nc5ccc(F)cc5)CC4)cc3Cl)ccnc2cc1OCC1CCNCC1 [Example 282, N-[5-chloro-6-({6-(methyloxy)-7-[(piperidin-4-ylmethyl)oxy]quinolin-4-yl}oxy)pyridin-3-yl]-N′-(4-fluorophenyl)cyclopropane-1,1-dicarboxamide]
 |  |  |  |  | < 50 | 50 to 500 | < 50 | < 50 | 50 to 500 | COc1cc2c(Oc3ccc(NC(=O)C(=O)NC(C)c4ccc(F)cc4)cc3F)ccnc2cc1OCC1CCNCC1 (stereo not shown) [Example 283, N-[3-fluoro-4-({6-(methyloxy)-7-[(piperidin-4-ylmethyl)oxy]quinolin-4-yl}oxy)phenyl]-N′-[1-(4-fluorophenyl)ethyl]ethanediamide]
